What was measured:
[1] = biological target: T1, Prostaglandin D2 receptor 2 (Homo sapiens, UniProt Q9Y5Y4); test: Binding affinity to human prostaglandin D2 receptor by cell based radioligand displacement assay
T1 sequence (Q9Y5Y4 whole entry): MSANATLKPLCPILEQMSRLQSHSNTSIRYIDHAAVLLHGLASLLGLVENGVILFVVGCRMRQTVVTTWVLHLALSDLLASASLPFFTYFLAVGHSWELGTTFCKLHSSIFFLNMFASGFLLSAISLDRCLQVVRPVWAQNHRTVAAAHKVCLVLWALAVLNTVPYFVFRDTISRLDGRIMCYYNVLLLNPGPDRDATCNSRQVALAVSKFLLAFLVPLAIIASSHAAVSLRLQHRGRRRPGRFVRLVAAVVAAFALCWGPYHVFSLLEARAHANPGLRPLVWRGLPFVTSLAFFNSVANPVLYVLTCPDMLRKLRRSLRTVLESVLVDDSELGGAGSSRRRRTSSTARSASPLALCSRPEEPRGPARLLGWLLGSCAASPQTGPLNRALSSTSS

[2] = biological target: T2, Prostaglandin D2 receptor (Homo sapiens) (UniProt Q13258); test: Binding affinity to human prostaglandin D1 receptor at 10 uM by radioligand displacement assay
T2 sequence (whole entry): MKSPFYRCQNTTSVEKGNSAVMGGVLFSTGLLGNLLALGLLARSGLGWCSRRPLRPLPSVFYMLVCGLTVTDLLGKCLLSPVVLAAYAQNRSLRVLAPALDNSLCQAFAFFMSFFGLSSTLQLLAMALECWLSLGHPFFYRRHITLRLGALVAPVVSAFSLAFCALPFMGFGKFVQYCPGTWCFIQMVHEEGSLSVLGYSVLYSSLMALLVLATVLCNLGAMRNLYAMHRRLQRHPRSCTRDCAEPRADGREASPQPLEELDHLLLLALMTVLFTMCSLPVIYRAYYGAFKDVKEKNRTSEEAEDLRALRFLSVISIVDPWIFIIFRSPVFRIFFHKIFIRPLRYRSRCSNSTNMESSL

Thromboxane A2 receptor = biological target: T3, Thromboxane A2 receptor (Homo sapiens, UniProt P21731); test: Binding affinity to human thromboxane A2 receptor by radioligand displacement assay
T3 sequence (P21731 whole entry): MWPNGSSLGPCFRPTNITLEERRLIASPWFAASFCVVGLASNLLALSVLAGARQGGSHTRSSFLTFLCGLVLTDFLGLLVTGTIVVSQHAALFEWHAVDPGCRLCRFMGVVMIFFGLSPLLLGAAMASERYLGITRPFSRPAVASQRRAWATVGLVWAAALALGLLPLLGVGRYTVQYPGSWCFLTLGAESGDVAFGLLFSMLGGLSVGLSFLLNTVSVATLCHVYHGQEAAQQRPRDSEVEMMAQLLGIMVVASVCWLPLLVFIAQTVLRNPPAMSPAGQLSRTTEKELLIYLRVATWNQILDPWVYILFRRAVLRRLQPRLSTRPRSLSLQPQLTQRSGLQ

[3] = biological target: T4, Thromboxane A2 receptor (Homo sapiens) (UniProt P21731); test: Binding affinity to human thromboxane A2 receptor at 10 uM by radioligand displacement assay
T4 sequence (whole entry): T3 sequence (P21731 whole entry)

[4] = biological target: T1, Prostaglandin D2 receptor 2; test: Antagonist activity at human prostaglandin D2 receptor assessed as inhibition of PGD2-induced receptor activation by cell based FLIPR assay; assay type: functional

| Ki [1] [nM] | SMILES | other results |
| --- | --- | --- |
| 38 | Cc1noc(C)c1CN1C(C)(c2c(C)n(CC(=O)O)c3ccccc23)c2ccccc2S1(=O)=O (racemic) |  |
| 8100 | CN1C(c2cn(CC(=O)O)c3ccccc23)c2ccccc2S1(=O)=O (racemic) |  |
| 23 | Cc1noc(C)c1CN1C(c2c(C)n(CC(=O)O)c3ccccc23)CCS1(=O)=O (racemic) |  |
| 8 | Cc1noc(C)c1CN1C(c2c(C)n(CC(=O)O)c3ccc(Cl)cc23)c2ccccc2S1(=O)=O (racemic) | inhibition [2]: 15%; inhibition [3]: 0% |
| 2000 | N#Cc1ccc2c(c1)c(C1NS(=O)(=O)c3ccccc31)cn2CC(=O)O (racemic) |  |
| 29 | Cc1c(C2c3ccccc3S(=O)(=O)N2CCOc2ccccc2)c2ccccc2n1CC(=O)O (racemic) | inhibition [2]: 0%; Ki (Thromboxane A2 receptor): 7800 nM |
| 220 | Cc1c(C2c3ccccc3S(=O)(=O)N2CCc2ccccc2)c2ccccc2n1CC(=O)O (racemic) |  |
| 630 | O=C(O)Cn1cc(C2c3ccccc3S(=O)(=O)N2CCc2ccccc2)c2ccccc21 (racemic) |  |
| 1500 | Cc1ccc2c(c1)c(C1NS(=O)(=O)c3ccccc31)c(C)n2CC(=O)O (racemic) |  |
| 2300 | CC(C)CCN1C(c2cn(CC(=O)O)c3ccccc23)c2ccccc2S1(=O)=O (racemic) |  |
| 13 | Cc1noc(-c2ccccc2)c1CN1C(c2c(C)n(CC(=O)O)c3ccccc23)c2ccccc2S1(=O)=O (racemic) |  |

Continued, compound first:

| SMILES | Ki [1] [nM] | other results |
| --- | --- | --- |
| Cc1c(C2c3ccccc3S(=O)(=O)N2CCOc2ccc(Cl)cc2)c2ccccc2n1CC(=O)O (racemic) | 35 | inhibition [2]: 28%; Ki (Thromboxane A2 receptor): 3400 nM |
| Cc1c(C2c3ccccc3S(=O)(=O)N2c2ccccc2)c2ccccc2n1CC(=O)O (racemic) | 480 |  |
| Cc1c(C2c3ccccc3S(=O)(=O)N2CCO)c2ccccc2n1CC(=O)O (racemic) | 1400 |  |
| O=C(O)Cn1cc(C2c3ccccc3S(=O)(=O)N2Cc2ccccc2)c2ccccc21 (racemic) | 1100 |  |
| Cc1c(C2c3ccccc3S(=O)(=O)N2CCC(C)C)c2ccccc2n1CC(=O)O (racemic) | 560 |  |
| O=C(O)Cn1cc(C2NS(=O)(=O)c3ccccc32)c2cc(Cl)ccc21 (racemic) | 2900 |  |
| Cc1c(C2c3ccccc3S(=O)(=O)N2CCCOc2ccccc2)c2ccccc2n1CC(=O)O (racemic) | 1400 |  |
| Cc1noc(C)c1CN1C(c2c(C)n(CC(=O)O)c3ccccc23)c2ccccc2S1(=O)=O (racemic) | 12 | inhibition [2]: 0%; inhibition [3]: 0%; Ki [4]: 28 nM |
| Cc1noc(C)c1CN1C(c2cn(CC(=O)O)c3ccccc23)c2ccccc2S1(=O)=O (racemic) | 18 |  |
| Cc1c(C2NS(=O)(=O)c3ccccc32)c2ccccc2n1CC(=O)O (racemic) | 2800 |  |
| O=C(O)Cn1cc(C2NS(=O)(=O)c3ccccc32)c2ccccc21 (racemic) | 9200 |  |
| Cc1c(C2NS(=O)(=O)c3ccccc32)c2cc(F)ccc2n1CC(=O)O (racemic) | 430 |  |
| Cc1c(C2NS(=O)(=O)c3ccccc32)c2cc(Cl)ccc2n1CC(=O)O (racemic) | 690 |  |
| Cc1ccc2c(c1)c(C1NS(=O)(=O)c3ccccc31)cn2CC(=O)O (racemic) | 2900 |  |
| Cc1c(C2c3ccccc3S(=O)(=O)N2C(C)C)c2ccccc2n1CC(=O)O (racemic) | 920 |  |

Source: ChEMBL document CHEMBL1155509, “3-Indolyl sultams as selective CRTh2 antagonists” (Bioorg Med Chem Lett, 2010)
